# Assays:
# Format in all cases: cell-based
# [1] = test system: Helicobacter pylori standard strain ATCC 43526 (NCTC 11916); assay: Antibacterial test 1: agar plate dilution method (anaerobic MIC method) against Hp; details: 72 h; Helicobacter pylori ATCC 43526 (NCTC 11916); brucella agar + 7% horse blood, microaerobic, 37° C., 3 days
# Protocol: Antibacterial test against Hp was performed in substantial accordance with agar plate dilution method (anaerobic MIC method) based on Standard method of The Japan Society of Chemotherapy to determine minimum inhibitory concentration (MIC) of the respective test compounds. The respective test compounds were sequentially dissolved in dimethyl sulfoxide (DMSO) and serially diluted twofold. […] Strain used for inoculation was Helicobacter pylori standard strain ATCC 43526 (NCTC 11916). For pre-culturing of bacteria to be inoculated, the above-mentioned strain freezingly conserved at -135° C. was thawed in a warm bath (40° C.), applied on a brucella agar medium containing 7% horse blood free from fibrin, and microaerobically cultured in a jar for anaerobic bacteria at 37° C. for 3 days. The solution of bacteria to be inoculated was prepared by collecting colonies grown on the culture medium and suspending the same in the brucella broth.
# [2] = test system: S.aureus FDA 209P; assay: Antibacterial Test 2: agar plate dilution method (aerobic MIC method), S.aureus; details: Staphylococcus aureus, FDA209P, sensitive-disk agar medium-N
# Protocol: (§1) Then, tested were antibacterial activities of the typical compounds of the present invention against gram-positive and-negative bacteria other than Hp. MICs of the typical compounds of the present invention were determined in substantial accordance with agar plate dilution method (aerobic MIC method) based on Standard method of The Japan Society of Chemotherapy.
# (§2) The respective test compound were dissolved in dimethyl sulfoxide (DMSO) and serially diluted twofold. These diluted solutions of the compounds were respectively added to sensitive-disk agar medium-N (manufactured by NISSUI SEIYAKU) to prepare agar plates for determination with concentration of 0.05-100 μg/ml.
# (§3) The below-mentioned strains freezingly conserved at -135° C. were thawed in a warm bath (40° C.), cultured in a sensitivity-determining bouillon at 37° C. for 18-20 hours, and then diluted with the above-mentioned medium to prepare about 1.0×10^6CFU/ml of bacterial solution.
# (§4) Inoculation was made by 5 μl by multi-inoculator (manufactured by SAKUMA SEISAKUSHO). Culturing was made under the same conditions as those of the pre-culturing and the MIC (unit: μg/ml) was determined by observing whether the bacteria grew or not.
# [3] = test system: M.luteus ATCC 9341; assay: Antibacterial Test 2: agar plate dilution method (aerobic MIC method), M.luteus; details: Micrococcus luteus, ATCC9341, sensitive-disk agar medium-N
# Protocol: as §1, §2, §3, §4
# [4] = test system: E.faecalis RIMD 3336001; assay: Antibacterial Test 2: agar plate dilution method (aerobic MIC method), E.faecalis; details: Enterococcus faecalis, RIMD3336001, sensitive-disk agar medium-N
# Protocol: as §1, §2, §3, §4
# [5] = test system: B.subtilis PCI 219; assay: Antibacterial Test 2: agar plate dilution method (aerobic MIC method), B.subtilis; details: Bacillus subtilis, PCI219, sensitive-disk agar medium-N
# Protocol: as §1, §2, §3, §4
# [6] = test system: E.coli NIHJ JC-2; assay: Antibacterial Test 2: agar plate dilution method (aerobic MIC method), E.coli; details: Escherichia coli, NIHJJC2, sensitive-disk agar medium-N
# Protocol: as §1, §2, §3, §4
# [7] = test system: K.pneumoniae PCI 602; assay: Antibacterial Test 2: agar plate dilution method (aerobic MIC method), K.pneumoniae; details: Klebsiella pneumoniae, PCI602, sensitive-disk agar medium-N
# Protocol: as §1, §2, §3, §4
# [8] = test system: P.aeruginosa IFO 3445; assay: Antibacterial Test 2: agar plate dilution method (aerobic MIC method), P.aeruginosa; details: Pseudomonas aeruginosa, IFO3445, sensitive-disk agar medium-N
# Protocol: as §1, §2, §3, §4
SMILES,MIC [1] [µg/mL],MIC [2] [µg/mL],MIC [3] [µg/mL],MIC [4] [µg/mL],MIC [5] [µg/mL],MIC [6] [µg/mL],MIC [7] [µg/mL],MIC [8] [µg/mL]
"S=c1cc[nH]c2cc(Cc3ccccc3)ccc12 [compound 47, 7-Benzylquinoline-4(1H)-thione]",0.2,> 100,50,> 100,> 100,> 100,> 100,> 100
"CC(C)c1ccc2c(=S)cc[nH]c2c1 [compound 2, 7-Isopropylquinoline-4(1H)-thione]",1.56,> 100,> 100,> 100,> 100,> 100,> 100,> 100
"COc1ccc2c(=S)cc[nH]c2c1 [compound 1, 7-Methoxyquinoline-4(1H)-thione]",0.39,50,> 100,> 100,> 100,> 100,> 100,> 100
"CCCOc1ccc2c(=S)cc[nH]c2c1 [compound 26, 7-n-Propoxyquinoline-4(1H)-thione]",1.56,100,> 100,> 100,> 100,> 100,> 100,> 100
"CN(C)c1ccc2c(=S)cc[nH]c2c1 [compound 48, 7-N,N-Dimethylaminoquinoline-4(1H)-thione]",0.2,100,> 100,> 100,> 100,> 100,> 100,> 100
"S=c1cc[nH]c2cc(SCc3ccccc3)ccc12 [compound 37, 7-Benzylthioquinoline-4(1H)-thione]",0.78,> 100,> 100,> 100,> 100,> 100,> 100,> 100
"CCCCCCCCOc1ccc2c(=S)cc[nH]c2c1 [compound 53, 7-Octyloxyquinoline-4(1H)-thione]",3.13,> 100,> 100,> 100,> 100,> 100,> 100,> 100
"CCCCCCc1ccc2c(=S)cc[nH]c2c1 [compound 15, 7-n-Hexylquinoline-4(1H)-thione]",0.39,> 100,> 100,> 100,> 100,> 100,> 100,> 100
"CSc1ccc2c(=S)cc[nH]c2c1 [compound 17, 7-Methylthioquinoline-4(1H)-thione]",0.39,> 100,> 100,> 100,> 100,> 100,> 100,> 100
"CCCCCCCCCCCCOc1ccc2c(=S)cc[nH]c2c1 [compound 52, 7-Dodecyloxyquinoline-4(1H)-thione]",6.25,–,–,–,–,–,–,–
"S=c1cc[nH]c2cc(Oc3ccccc3)ccc12 [compound 38, 7-Phenoxyquinoline-4(1H)-thione]",0.78,> 100,> 100,> 100,> 100,> 100,> 100,> 100
"Cc1ccc2c(=S)cc[nH]c2c1C [compound 55, 7,8-Dimethylquinoline-4(1H)-thione]",0.39,> 100,> 100,> 100,> 100,> 100,> 100,> 100
"S=c1cc[nH]c2cc(COc3ccccc3)ccc12 [compound 6, 7-Phenoxymethylquinoline-4(1H)-thione]",1.56,> 100,> 100,> 100,> 100,> 100,> 100,> 100
"COCc1ccc2c(=S)cc[nH]c2c1 [compound 16, 7-Methoxymethylquinoline-4(1H)-thione]",1.56,50,100,50,100,> 100,> 100,> 100
"O=C(O)CCCCCOc1ccc2c(=S)cc[nH]c2c1 [compound 51, 7-(5-Carboxy-n-pentyloxy)quinoline-4(1H)-thione]",1.56,100,> 100,100,> 100,> 100,> 100,> 100
"S=c1cc[nH]c2cc(-c3ccccc3)ccc12 [compound 3, 7-Phenylquinoline-4(1H)-thione]",1.56,> 100,> 100,> 100,> 100,> 100,> 100,> 100
"NC(=O)c1ccc2c(=S)cc[nH]c2c1 [compound 12, 7-Carbamoylquinoline-4(1H)-thione]",6.25,–,–,–,–,–,–,–
"Cc1ccc2c(=S)cc[nH]c2c1 [compound 11, 7-Methylquinoline-4(1H)-thione]",0.39,–,–,–,–,–,–,–
"CC(C)N(C)c1ccc2c(=S)cc[nH]c2c1 [compound 34, 7-(N-Isopropyl-N-methylamino)quinoline-4(1H)-thione]",0.78,> 100,> 100,> 100,> 100,> 100,> 100,> 100
"S=c1cc[nH]c2cc(-c3ccc4ccccc4c3)ccc12 [compound 46, 7-(2-Naphtyl)quinoline-4(1H)-thione]",3.13,–,–,–,–,–,–,–
"CC(C)Oc1ccc2c(=S)cc[nH]c2c1 [compound 23, 7-Isopropyloxyquinoline-4(1H)-thione]",0.78,> 100,> 100,> 100,> 100,> 100,> 100,> 100
"S=c1cc[nH]c2cc(/C=C/c3ccccc3)ccc12 [compound 32, trans-7-Styrylquinoline-4(1H)-thione]",0.78,> 100,> 100,> 100,> 100,> 100,> 100,> 100
"S=c1cc[nH]c2cc(OCc3ccccc3)ccc12 [compound 25, 7-Benzyloxyquinoline-4(1H)-thione]",6.25,–,–,–,–,–,–,–
"O=[N+]([O-])c1cccc2c(=S)cc[nH]c12 [compound 7, 8-Nitroquinoline-4(1H)-thione]",6.25,–,–,–,–,–,–,–
"O=[N+]([O-])c1ccc2c(=S)cc[nH]c2c1 [compound 19, 7-Nitroquinoline-4(1H)-thione]",3.13,–,–,–,–,–,–,–
"CC(=O)c1ccc2c(=S)cc[nH]c2c1 [compound 13, 7-Acetylquinoline-4(1H)-thione]",1.56,–,–,–,–,–,–,–
"COc1cccc2c(=S)cc[nH]c12 [compound 42, 8-Methoxyquinoline-4(1H)-thione]",0.39,–,–,–,–,–,–,–
"CN(C)Cc1ccc2c(=S)cc[nH]c2c1 [compound 33, 7-N,N-Dimethylaminomethylquinoline-4(1H)-thione]",6.25,–,–,–,–,–,–,–
"S=c1cc[nH]c2c1ccc1cccnc12 [compound 45, 1,10-Phenanthroline-4(1H)-thione]",0.39,–,–,–,–,–,–,–

# From US5773449A, “Thioquinolone compounds which have useful pharmaceutical activity” (Zenyaku Kogyo Kabushiki Kaisha, priority 1994, dated 1998)
